The values below come from patent US20160340704A1, “METHOD OF MAKING A BENZYLISOQUINOLINE ALKALOID (BIA) METABOLITE, ENZYMES THEREFORE” (VALORBEC SOCIÉTÉ EN COMMANDITE, priority 2014, published 2016).

Entries after “also recorded” stand apart in the source; their conditions may differ.

A short description of data set [1]: Relative abundance of BIAs in culture supernatants and cell extracts. The data set is classed as cell-based, Saccharomyces cerevisiae. The conditions noted are these: for fraction in which the BIA is mainly found (supernatant or cell extract): strains with heterologous enzymes. The procedure: Whole cell substrate feeding assays were used to test the function of each enzyme block individually and in combinations. To prepare the cells for the feeding assays, a colony of S. cerevisiae was inoculated in YNB-DO-GLU and incubated for 24 hours. Cultures were diluted to an OD600 of 0.8 into 6 ml of fresh YNB-DO-GLU and incubated for an additional 7 hours. Cells were harvested by centrifugation at 2000×g for 2 min. Supernatants were decanted and cells were suspended in 2 ml of Tris-EDTA (10 mM Tris-HCl, 1 mM EDTA, pH 8), containing 10 μM of one of the following feeding substrates: (R,S)-norlaudanosoline, (S)-reticuline, (S)-scoulerine or (S)-stylopine. Cells were incubated for 16 hours then harvested by centrifugation at 15000×g for 1 min. For BIA extraction from cells, the cell pellet was suspended in 500 μl methanol with ˜50 μl acid-washed glass beads and vortexed for 30 min. Cell extracts were clarified by centrifugation at 15000×g for 1 min and used directly for LC-MS analysis.
Detection of alkaloids in the sanguinarine biosynthetic pathway was performed by FT-MS using a 7T-LTQ FT ICR instrument (Thermo Scientific, Bremen, Germany). Alkaloids were separated by reverse phase HPLC (Perkin Elmer SERIES 200 Micropump, Norfolk, Conn.) using an Agilent Zorbax™ Rapid Resolution HT C18 2.1*30 mm, 1.8 micron column. Solvent A (0.1% acetic acid) and solvent B (100% acetonitrile) were used in a gradient elution to separate the metabolites of interest as follows: 0-1 min at 100% A, 1-6 min 0 to 95% B (linear gradient), 7-8 min 95% B, 8-8.2 min 100% A, followed by a 1 min equilibration at 100% A. Three microliters of either cell extract or supernatant fraction were loaded on the HPLC column run at a flow rate of 0.25 ml/min. Dilutions in methanol were performed to keep alkaloid concentrations within the range of standard curve values and avoid saturating FT signals. Following LC separation, metabolites were injected into the LTQ-FT-MS (ESI source in positive ion mode) using the following parameters: resolution, 100000; scanning range, 250 to 450 AMU; capillary voltage, 5 kV; source temperature, 350° C.; AGC target setting for full MS were set at 5×10^5 ions. Identification of alkaloids was done using retention time and exact mass (<2 ppm) of the monoisotopic mass of the protonated molecular ion [M+H]^+. LC-FT-MS data were processed using the freely available program Maven^56. When available authentic standards were used to confirm the identity of the BIA intermediates (using HPLC retention times and exact masses) and to quantify sanguinarine alkaloids. When unavailable, we assumed equal ionization efficiency between an intermediate and the closest available quantifiable alkaloid (m/z 302 and m/z=316: reticuline; cheilanthifoline: stylopine).
To confirm functional expression of enzymes, plasmids expressing each of the three blocks were individually transformed into S. cerevisiae and cultures of the strains were supplemented with either (R,S)-norlaudanosoline, (S)-reticuline, (S)-scoulerine or (S)-stylopine. Functional expression was verified by detection of the expected end products. As negative controls, yeast strains lacking enzyme blocks were incubated with each of the pathway intermediate to evaluate substrate recovery and to assess the relative proportion recovered in cellular extracts versus culture supernatants.

A further data set has as its system cheilanthifoline. Description: CYP719 Ring A closure of cheilanthifoline to stylopine in GC1333. The data set is classed as cell-based, Saccharomyces cerevisiae. On the procedure:
FIG. 11A-B: showing conversion of (S)-cheilanthifoline (FIG. 11A) or (S)-nandinine (FIG. 11B) to (S)-stylopine by purchased CYP719s. Plasmids harboring CYP719s were transformed into GC1333 containing an integrated PsCPR. Strains were incubated with the appropriate BIA overnight, and then total BIAs were extracted and total molar ratios were compared. PsSPSΔN was used as a control.
The 10 CYP719s with 95% activity on Ring A of scoulerine and the 10 CYP719s with activity on Ring B of scoulerine were tested for activity on cheilanthifoline and nandinine, respectively, in order to generate a branched stylopine synthesis pathway. […] CYP719s PsCFS and EX101, capable of converting >98% of scoulerine to cheilanthifoline and nandinine, respectively, were incubated with scoulerine. After 16 h, cells were pelleted and the supernatant fraction was collected. The supernatant was then applied to fresh yeast strains in order to supplement them with either TE containing nandinine or cheilanthifoline as necessary.

On to `Oc1ccc(CC2NCCc3cc(O)c(O)cc32)cc1O` (racemic) [(R,S)-norlaudanosoline], for which the “share of fed BIA found in the cell extract after 16 hours of incubation” value in data set [1] (wild-type / negative control cells, 16 hours) amounted to 10%. In addition, the “share of fed BIA found in the cell extract, initially” value in data set [1] (wild-type cells, 0 hours) amounted to 3%.

Turning to `c1cc2c(c3c1C[C@H]1c4cc5c(cc4CCN1C3)OCO5)OCO2` [(S)-stylopine], the “fraction in which the BIA is mainly found (supernatant or cell extract)” value (“fraction” below) in data set [1] (16 hours) is “predominantly found in the cell extract; also recorded: mostly found in the cellular extract fraction”.

Regarding `COc1cc2c(cc1O)C1Cc3ccc4c(c3CN1CC2)OCO4` (stereo not drawn) [Cheilanthifoline, cheilanthifoline], the “fraction” value in data set [1] (16 hours) is “mainly found in the supernatant”.

On to `C[N@@+]12CCc3cc4c(cc3[C@@H]1Cc1ccc3c(c1C2)OCO3)OCO4` [N-methylstylopine], for which the “share of BIA found in the culture supernatant” value in data set [1] (Block 3 feeding assay, 16 hours) is recorded as “Approximately 55%”.

Take `CN1Cc2c(ccc3c2OCO3)-c2ccc3cc4c(cc3c21)OCO4` [dihydrosanguinarine]: the “fraction” value in data set [1] (16 hours) was “mostly found in the cellular extract fraction”.

B1: EX67: CYP719 from Glaucium flavum, SEQ ID NO: 346 (protein, listed as Glaucium flavum)
chain: MEMKSSVVFSYPAMEELFKSNPWVITGTTLAVLILMTTMFRKKSLSMKWPKGPKTLPIIGNMHLLGGTNLQVILHNMSKVYGNVMTIWIGSWRPVIVVSDIERAWEVLVNKSSDYSGRDMPEITKIISADWKTISTSDSGPHWTNLRKGLQNVALSPHNLAAQFQFQERDICKLIETLKEEAKLNNGIVKPLDHLKKATIRLISRLVFGQDFDNSKYVEDMHHAIEELIRVSGYARLADAFYYAKYLPSQKKAVRDVEEAQRRVQRLVRPFLSLNPPTNCYLHFLRSQNYSDEVIIFAIFEAYLLGVDSTSSTTAWALAFLVREPNVQEKLYQELKNFTAKNGREMLKVEDINKLPYLQAVIKETMRMKPIAPLAIPHKACRDTSLKGRKIDKGTQIMVNIYALHHNENVWKEPFKFMPERFLQTDQDVNGKAMDQSLLPFSAGMRICAGMELGKLQFSFSLANLLNTFQWSCVADGVLPDMSDQLGFVLLMKTPLEARITPRC
With B1, the “conversion of cheilanthifoline to stylopine” value (from here on “conversion of cheilanthifoline”) with cheilanthifoline is recorded as greater than 98%.

B2: EX101: CYP719 from Stylophorum diphyllum, SEQ ID NO: 380 (protein, listed as Stylophorum diphyllum)
chain: MESLIDFSNPAKMEELMSNPWIITAITLAVVIIMMTIFRRKSSSMKWPKGPKTLPIIGNMHLFGGTDLHVVLYNIAKVYGNVMTIWIGSWRPVIVISDIERAWEVLVNKSSDYSARDMPEITKLISSDWKTISTSDAGAFWTNLRKGLQNVALSPHNLASQFQFQESDIKKLIETIKEEGAVNNGIVKPLDHLKKAMVRLISRLIFGQDFDNDKYVEGMHHAIEELIRVSGYARLAEAFYYAKYLPSHKKAVRDVEEANRRVQKLVRPFLSLNPPTNTYLHFLRSQNYSEEVIIFAIFEAYLLGVDSTSSTTAWALAFLIREPNVQEKLYQELKNFTVKNGRDMLKVEDINKLPYLQATIKETMRMKPIAPLAIPHKACRDTSLMGSKIDKGTRVMVNIYALHHNEKIWKEPFKFMPERFLQTEGEVNGKAMEQSFLPFSAGMRICAGMELGKLQFNFALANLVNAFKWSCVADGVLPDMSDQLGFVLVMKTPLEARITPRC
Consider B2, for which the “conversion of cheilanthifoline” value with cheilanthifoline is reported as greater than 98%.

B3: EX42: CYP719 from Argemone mexicana, B1NF19.1, SEQ ID NO: 321 (protein, listed as Argemone mexicana)
chain: MEEKIMTNNSPWILTSSTTTTTTILLSLLFTIFIILRRNKSSSSKMVWPTGPKTLPIIGNMNILGGTALHVVLHNLAKTYGNVMTIWIGSWRPVIVVSDIDRAWEVLVNKSSDYSARDMPEITKLATADWKTISSSDSGPFWTNLRKGLQNVALSPQNLSSQSKFQERDIIKTIQNLKEEAKMNNGIVKPLDHLKKAMVRLISRLIYGQDFDNDEYVEEMHHTIEELIRVSGYARLAEAFYYAKYLPSHKKAVREVLQANQRVQNLVRPLLSLNSPTNTYLHFLRSQNYEDEVIIFAIFEAYLLGVDSTSSTTAWALAYLIREPNVQEKLYEELKNFTNDNDRKMVKFEDLNKLQYLQAVVKETMRMKPIAPLAIPHKACRETSLMGRKVNQGTRVMVNIYALHHNQNVWKEPYKFNPERFLQKNQDGVDGKAMEQSLLPFSAGMRICAGMELGKLQFSFALANLVNAFKWSCVSDGVFPDMSDQLGFVLLMKTPLEAGIVPRM
As to B3, the “conversion of cheilanthifoline” value in the data set with cheilanthifoline is greater than 98%.

B4: EX56: CYP719 from Chelidonium majus, SEQ ID NO: 335 (protein, listed as Chelidonium majus)
chain: MLLILIMDFRNSRSNLNPAKMEELMSDPWIITATTLAVVILLTTILRRKSSSMKWPKGPKTLPIIGNMHLFGGTDLHVVLYNIAKVYGNVMTIWIGSWRPVIVISDIERAWEVLVNKSSDYSARDMPEITKLISSDWKTISTSDAGAFWTNLRKGLQNVALSPHNLASQFQFQESDIKKLIETIKEEAAVNNGIVKPLDHLKKAMVRLISRLVFGQDFDNDEYVEGMHHAIEELIRVSGYARLAEAFYYAKYLPSHKKAVRDVEEANRRVQKLVRPFLSLNPPTNTYLHFLRSQNYSEEVIIFAIFEAYLLGVDSTSSTTAWALAFLIREPNVQEKLYQELKNFTVKNGRDMLKVEDINKLPYLQATIKETMRMKPIAPLAIPHKACRDTSLKGSKIDKGTRVMVNIYALHHNEKIWKEPFKFMPERFLQTEGENGKAMEQSFLPFSAGMRICAGMELGKLQFNFALANLVNAFKWSCVADGVLPDMSDQLGFVLVMKTPLEARITSRC
With B4, the “conversion of cheilanthifoline” value in the data set with cheilanthifoline is given as greater than 98%.

B5: EX96: CYP719 from Sanguinaria canadensis, SEQ ID NO: 375 (protein, listed as Sanguinaria canadensis)
chain: MEFEKIMMSNPWILAATTAVVFISITAIFFRRKSSSMEWPTGPKTLPIIGNMHLLGGTALHVVLHNFAKIYGNVMTIWIGSWRPVIVVSDIDRAWEVLVNKSSDYSARDMPEITKIISADWKTISTSDSGPFWTNLRKGLQNVALSPHNLAAQARFQERDISKMIETLKEEAALNNGIVKPLDHLKKATVRLISRLIYGQEFDNNKYVEDMHHAIEELIRVSGYARLAEAFYYAKYLPSHKKAVRDVEEANRRVKNLVRPFLSSNPPTNCYLHFLRTQNYPEEVIIFAIFEAYLLGVDSTSSTTAWALAFLVREPNVQEKLYQELKNFTTNNDRKMLKVEDINKLQYLQAVIKETMRMKPIAPLAIPHKACKETSLMGSKVDKGTRVMVNIYALHHNQKVWKEPYKFMPERFLETDNQDGNVGKAMEQSLLPFSAGMRICAGMELGKLQFTFSLANLVNAFKWSCVSDGVLPDMSDQLGFVLLMKNPLEARIVPRS
As for B5, the “conversion of cheilanthifoline” value with cheilanthifoline is listed as greater than 98%.

B6: EX76: CYP719 from Nandina domestica, SEQ ID NO: 355 (protein, listed as Nandina domestica)
chain: MEESFWIVSATIVVVFVIATMFRKSSSISSKTEWPAGPKKLPVIGNLHQLGGDVLHVVLANLAKVYGTVMTVWVGSWKPMIVISDIDRAWEVLVNKSSDYSGRAMPEITEIISAKGKTISTSDSGPHWSNLRKGLQNVALSPHNIAAQSRFQESDITKMIKTLKQEAASNNGIVQPLDHLKKSTVRLISRLIFGQDFDDDEYVEAMHLAVEELIRVSGYARLAEAFYYAKYLPSHKRAVSEVWEANRRVKRIVKPRLSANPPPNCYLHFLSSQDYSEEMIIFAIFEAYLLGVDSTSSTTAWALGFLIREPKVQERLYQELKNCAGENGLIKVEDINKLPYLQAVLKETMRMKPIAPLAIPHKAVRETSLAGNKVEPGTRVMVNLYAIHHNPKVWIDPHKFKPERFLQGEENGGGNLKLMEQSLLPFSAGMRTCAGMELGKLQFGFSLANLVNAFQWDCAKKGMFPDMSDLLGFVLLMKTPLQAKIVPRGSPSINGY
In the case of B6, the “conversion of cheilanthifoline” value with cheilanthifoline was greater than 98%.
